Data from US11559585B2, “Conjugates of active pharmaceutical ingredients” (priority 2017, dated 2023).
pIC50: −log10 of the molar value.

Legend:
[1] = Systemic toxicity of pPhD NPs (body weight, H&E); format: in vivo
Procedure: Tumor volume and body weight measurements. The body weights and tumor sizes were monitored three times a week, and the tumor volume was calculated by the following formula: Tumor volume=Length×(Width/2)^2.
H&E evaluation. All laser-treated tumors were collected and stained with hematoxylin and eosin (H&E) to evaluate the effect of phototherapy. The main organs of each group, including heart, liver, spleen, lung, kidney, small intestine, were collected for H&E assay to evaluate the toxicity of the materials.

OSC-3 cells = assay: Cell viability with or without laser
Procedure: The synergistic effect of the chemotherapy and phototherapy of pPhD NPs was evaluated. OSC-3 cells were incubated with different concentrations of free photosensitizer (Phy), free chemotherapeutic drug (DOX) and pPhD NPs, respectively, then treated with or without laser (FIG. 11i).

[2] = system: A549 human lung cancer cells; assay: Cell uptake and intracellular ROS production; format: cell-based; conditions: upon laser/light illumination
Procedure: Cell uptake and intracellular ROS production. […] After three times of washes with PBS, cells were incubated with 50 μM DCF-DA for 30 minutes. Samples were treated with or without light (630 nm, Omnilux New-U LED panel) for 1 minute, and intracellular […] (based on Pa fluorescence) and ROS production were analyzed by flow cytometry ([…], BD Bioscience, SD, CA).

A549 cells = assay: Cytotoxicity assay (MTS) with or without light; format: cell-based, human; conditions: upon light treatment (630 nm, 3 min)
Procedure: Cytotoxicity assay. Cell viabilities were determined by MTS method according to manufactory manual (Promega, Madison, Wis.). A549 cells were seeded in 96-wells plates with a density of 5000 cells per well. […] Six hours later, medium was replaced with fresh complete media followed by illumination with 630 nm light for 3 minutes. After additional 24 hours incubation, MTS working solution was added and the absorbance at 490 nm was evaluated by SpectraMax M3 microplate reader. Experiments were performed in triplicate, and 3 independent experiments were conducted.

U87-MG tumour cells = assay: Cell viability (MTS) with or without laser; format: cell-based
Procedure: Cell viabilities evaluation. U87-MG cells were purchased from the American Type Culture Collection (ATCC, Manassas, Va., USA). Cells were cultured in RPMI 1640 Medium supplemented with 10% fetal bovine serum, 100 U/mL penicillin G, and […] streptomycin in a humidified 37° C. with 5% CO2. Cell viabilities were determined by MTS method. U87-MG cells were seeded in 96-well plates with a density of 5000 cells per well. The cells were incubated overnight until fully attached. The cells were treated with different concentrations of Pa, Ir, Pa and Ir mixture and PIN. 12 h later, the extracellular materials were washed off with PBS and replaced with fresh culture media. Laser treated group were exposed under a laser source of Omnilux New-U device (630 nm) for 3 min, and further incubated with non-laser treated cells for another 24 h. MTS was added to each well and further incubated for 2 h. The UV-vis absorbance at 495 nm with a reference wavelength of 630 nm was detected using a micro-plate reader using an SpectraMax M3 Multi-Mode Microplate Readers (Molecular Devices, LLC., CA, USA). Untreated cells in medium were used as controls. […]. Results were shown as the average cell viability [(ODtreat−ODblank)/(ODcontrol−ODblank)*100%] of triplicate wells.

## COc1cccc2c1C(=O)c1c(O)c3c(c(O)c1C2=O)C[C@@](O)(C(=O)CO)C[C@@H]3O[C@H]1C[C@H](N)[C@H](O)[C@H](C)O1 [DOX, doxorubicin]
[1]; during treatment
  body weight changes / systemic toxicity: obvious body weights loss
[1]; mouse, in vivo
  lesion of major organs (H&E): obvious liver and heart toxicity
OSC-3 cells
  cytotoxicity: notable anti-tumor efficacy

## CCc1c2c(nc3ccc(OC(=O)N4CCC(N5CCCCC5)CC4)cc13)-c1cc3c(c(=O)n1C2)COC(=O)[C@]3(O)CC [Ir, irinotecan]
[2]
  intracellular ROS production: did not produce intracellular ROS

## pheophorbide A [Pa]
A549 cells
  pIC50: 5.15
U87-MG tumour cells; with laser treatment (630 nm, 3 min)
  pIC50: ~4.30
U87-MG tumour cells; without laser
  cytotoxicity: no obvious cytotoxicity

## pheophorbide a-hydrazide [Phy]
OSC-3 cells
  cytotoxicity: no obvious cytotoxicity
